Read-outs that look alike come from different tables or passages of the source.
Assays:
[1] = test system: phenylbenzoquinone irritant-induced writhing in mice; test: Suppression of phenylbenzoquinone (PBQ) irritant-induced writhing; assay type: in vivo, mice (Carworth Farms CF-1); conditions: Mus musculus, read-out: ED50 in PBQ Writhing Test
Protocol: The analgesic properties of the compounds of this invention are determined by tests using thermal nociceptive stimuli, such as the mouse tail flick procedure, or chemical nociceptive stimuli, such as measuring the ability of a compound to suppress phenylbenzoquinone irritant-induced writhing in mice. These tests and others are described below.
Suppression of Phenylbenzoquinone Irritant-Induced Writhing
Groups of 5 Carworth Farms CF-1 mice are pretreated subcutaneously or orally with saline, morphine, codine or the test compound. Twenty minutes (if treated subcutaneously) or fifty minutes (if treated orally) later, each group is treated with intraperitoneal injection of phenylbenzoquinone, an irritant known to produce abdominal contractions. The mice are observed for 5 minutes for the presence or absence of writhing starting 5 minutes after the injection of the irritant. MPE50 's of the drug pretreatments in blocking writhing are ascertained.
(§1) Results of the above tests are recorded as percent maximum possible effect (% MPE). The % MPE of each group is statistically compared to the % MPE of the standard and the predrug control values. The % MPE is calculated as follows: [formula]
(§2) The analgesic activity is reported in terms of MPE50, the dose at which half of the maximal possible analgesic effect is observed in a given test.
The analgesic activity of several compounds of the invention in the above described test for suppresion of phenylbenzoquinone (PBQ) irritant-inducedwrithing are set forth below in Table I.

rabbits = conditions: 20 mg./kg.; cited from earlier work
animal pharmacology = conditions: in vivo; cited from earlier work
[2] = test system: thermal nociceptive stimulus (heat applied to the tail) in mice; test: Mouse tail flick analgesic testing; assay type: in vivo; conditions: s.c.
Description: (b) Mouse Tail Flick Analgesic Testing
Tail flick testing in mice is modified after D'Amour and Smith, J. Pharmacol. Exp. Ther., 72, 74-79 (1941), using controlled high intensity heat applied to the tail. Each mouse is placed in a snug-fitting metal cylinder, with the tail protruding through one end. This cylinder is arranged so that the tail lies flat over a concealed heat lamp. At the onset of testing, an aluminum flag over the lamp is drawn back, allowing the light beam to pass through the slit and focus onto the end of the tail. A timer is simultaneously activated. The latency of a sudden flick of the tail is ascertained. Untreated mice usually react within 3-4 seconds after exposure to the lamp. The end point for protection is 10 seconds. Each mouse is tested at 0.5 and 2 hours after treatment with morphine and the test compound. Morphine has an MPE5 50 of 3.2-5.6 mg./kg. (s.c.).
as §1, §2

[3] = test system: thermal nociceptive stimulus (hot plate, 57° C.) in mice; test: Mouse hot plate analgesic testing; assay type: in vivo; conditions: s.c.
Protocol: (a) Mouse Hot Plate Analgesic Testing
The method used is modified after Woolfe and MacDonald, J. Pharmacol. Exp. Ther., 80, 300-307 (1944). A controlled heat stimulus is applied to the feet of mice on a 1/8" think aluminum plate. A 250 watt reflector infrared heat lamp is place under the bottom of the aluminum plate. A thermal regulator, connected to thermistors on the plate surface, programs the heat lamp to maintain a constant temperature of 57° C. Each mouse dropped into a glass cylinder (61/2" diameter) resting on the hot plate, and timing is begun when the animal's feet touch the plate. At 0.5 and 2 hours after treatment with the test compound the mouse is observed for the first "flicking" movements of one or both hind feet or until 10 seconds elapse without such movements. Morphine has an MPE50 =4-5.6 mg./kg. (s.c.).
as §1, §2

[4] = sc, subcutaneous, twenty minutes pretreatment
[5] = oral, fifty minutes pretreatment

For `CC(CCCc1ccccc1)c1cc2c(cc1O)C1C(O)CCCC1C(C)(C)O2` (mixture of isomers) [Example 11, dl-cis-6a,7,8,9,10a-Hexahydro-2,10-dihydroxy-6,6-dimethyl-3-(1-methyl-4-phenylbutyl)-6H-dibenzo[b,d]pyran], the ED50 [1, 4] was 27 mg/kg.

With `CC(CCCc1ccccc1)c1cc2c(cc1O)C1=C(CCCC1)C(C)(C)O2` (racemic) [Example 16, dl-7,8,9,10-Tetrahydro-2-hydroxy-6,6-dimethyl-3-(1-methyl-4-phenylbutyl)-6H-dibenzo[b,d]pyran] the ED50 [1, 5] was 10 mg/kg.

Work on `CC(CCCc1ccccc1)c1cc2c(cc1O)C1=C(CCCC1O)C(C)(C)O2` (racemic) [Example 21, dl-7,8,9,10-Tetrahydro-2,10α-dihydroxy-6,6-dimethyl-3-(1-methyl-4-phenylbutyl)-6H-dibenzo[b,d]pyran] yielded an ED50 [1, 5] of 10 mg/kg.

`CC(CCCc1ccccc1)c1cc2c(cc1O)[C@@H]1C(=O)CCC[C@@H]1C(C)(C)O2` (relative stereo) [Example 9A, dl-cis-6a,7,8,9,10,10a-Hexahydro-2-hydroxy-6,6-dimethyl-3-(1-methyl-4-phenylbutyl)-10-oxo-6H-dibenzo[b,d]pyran] showed an ED50 [1, 4] of 10 to 32 mg/kg.

For `CCCCCc1cc2c(cc1O)C1=C(CCC(C)C1)C(C)(C)O2` (centres unmarked) [6,7,8,9-tetrahydro-2-hydroxy-3-n-amyl-6,6,9-trimethyldibenzo[b,d]pyran], the activity in rabbits (rabbits) is given as “inactive”.

For `CCCCCc1cc(O)c2c(c1)N(C)C(C)(C)C1=C2CC(C)CC1` (centres unmarked) [7,8,9,10-tetrahydro-1-hydroxy-5,6,6,9-tetramethyl-3-n-pentylphenanthridine], the “activity in animal pharmacology” value (animal pharmacology) is listed as “completely inert”.

For `CN1CC[C@]23c4c5ccc(O)c4O[C@H]2[C@@H](O)C=C[C@H]3[C@H]1C5` [Morphine], the “MPE50 (printed MPE5 50)” value [2] was 3.2 to 5.6 mg/kg and the MPE50 [3] was 4 to 5.6 mg/kg.

From patent US4206225A, “2,10-Disubstituted dibenzo[b,d]pyrans and benzo[c]quinolines” (priority 1978, dated 1980)
